According to patent US12269902B2, “Peptide compounds and peptide conjugates for the treatment of cancer through receptor-mediated chemotherapy” (TRANSFERT PLUS, S.E.C., priority 2015, dated 2025):
Non-standard residues stand in square brackets, D forms with d. Residues, ends and D or L forms follow the SMILES beside them. *: point of attachment. X1 = CC(=O)O[C@@]12CO[C@@H]1C[C@H](O)[C@@]1(C)C(=O)[C@H](O)C3=C(C)[C@@H](OC(=O)[C@H](OC(=O)CCC(=O)*)[C@@H](NC(=O)OC(C)(C)C)c4ccccc4)C[C@@](O)([C@@H](OC(=O)c4ccccc4)[C@H]21)C3(C)C; Nle = CCCC[C@H](N)C(=O)O

Experiments:
[1] = test system: ES-2 ovarian cancer cells; experiment: [3H]-Thymidine incorporation cell proliferation assay, ES-2; format: cell-based; conditions: ES-2 (Ovary)
Description: (§1) The effect of the Docetaxel-Katana peptide conjugate on various cell line proliferations was evaluated and compared to unconjugated Docetaxel (Table 4). IC50 values obtained for the Docetaxel-Katana peptide conjugate were very similar to those of Docetaxel in the cancer cells tested.
(§2) The phytochemical Curcumin, unconjugated and conjugated, was also tested on cancer cell proliferation (FIG. 28). Breast cancer cells (MDA-MB231) were incubated with increasing concentrations of KBC106 or curcumin. After 72 hrs, thymidine incorporation assay was performed to assess the anti-proliferative properties of both molecules. IC50 values were extracted from the anti-proliferative curves. […] Proliferation assay was also performed using different types of cancer cells (ovarian, breast, skin and colorectal cancer cells). IC50 values were calculated from the anti-proliferation curves. In all cases, the Curcumin conjugate (KBC106) had stronger anti-proliferative activity (9-100 fold) than unconjugated Curcumin, as shown in Table 6 below.
(§3) Cancer cells were cultured in 96-well white plates (Perkin Elmer). They were synchronized for 24 hours in serum-deprived medium. After incubation of cells with unconjugated drugs (docetaxel, cabazitaxel, doxorubicin) or with drug-Katana peptide conjugates for 2 or 3 days, all media was aspirated and cells were pulse-labeled for 4 hours at 37° C./[…]/5% CO2 with media containing 2.5 μCi/mL [methyl-3H] thymidine (Perkin Elmer). Cells were washed, fixed, and dried before addition of scintillation fluid (Microscint 0, Perkin Elmer). After 24 hours, cell-associated tritium was quantified by counting on a plate reader (TopCount, Perkin Elmer). Incorporated [3H] thymidine was plotted for each drug concentration.

A-375 skin cancer cells = experiment: [3H]-Thymidine incorporation cell proliferation assay, A-375; format: cell-based; conditions: Homo sapiens
Description: as §1, §2, §3

cancer cells = experiment: Apoptosis by fluorescence microscopy (alpha-tubulin, DAPI); format: cell-based; conditions: fluorescent microscopy
Description: In FIG. 30, it was further evaluated whether the Curcumin conjugate (KBC106) induces cancer cell apoptosis. Cancer cells were incubated with KBC106 and curcumin. First column, uptake for both molecules can be monitored by fluorescent microscopy. Higher accumulation of fluorescence was detected for KBC1006 indicating a better cell internalization for the conjugate. Curcumin accumulation was barely visible in these cancer cells. […] In the third column, cell nucleus was labelled with the fluorescent dye DAPI.

[2] = test system: SK-MEL-28 skin cancer cells; experiment: [3H]-Thymidine incorporation cell proliferation assay, SK-MEL-28; format: cell-based; conditions: Homo sapiens
Description: as §1, §2, §3

[3] = test system: HT-29 colorectal cancer cells; experiment: cells; format: cell-based; conditions: Homo sapiens, Table 6
Description: as §2, §3

[4] = test system: HCC-1954 breast cancer cells; experiment: cells; format: cell-based; conditions: Homo sapiens, HCC1954; HCC-1954 (HER2+; Lapatinib resistant); Table 6
Description: as §2, §3

[5] = test system: HCC-1569 breast cancer cells; experiment: cells; format: cell-based; conditions: Homo sapiens, HCC1569; HCC-1569 (HER2+; Herceptin resistant); Table 6
Description: as §2, §3

[6] = test system: MDA-MB-231 breast cancer cells; experiment: cells; conditions: Homo sapiens
Description: Breast cancer cells (MDA-MB231) were incubated with increasing concentrations of KBC106 or curcumin. After 72 hrs, thymidine incorporation assay was performed to assess the anti-proliferative properties of both molecules. IC50 values were extracted from the anti-proliferative curves.
as §2, with “curves.” for “curves. In all cases, the Curcumin conjugate (KBC106) had stronger anti-proliferative activity (9-100 fold) than unconjugated Curcumin, as shown in Table 6 below.”
as §3

[7] = free Docetaxel; Assessment report for Docetaxel Teva, European Medicines Agency; cited from earlier work
[8] = test system: MDA-MB231 breast cancer cells; experiment: MDA-MB231 luciferase breast subcutaneous tumors (Docetaxel, KBA106); format: in vivo, mice
Description: 27A. Mice were implanted in the flank with MDA-MB231 breast cancer cells expressing luciferase. Tumor growth by luminescence was visualized using an in vivo imaging system from Carestream. Mice were treated with vehicle, Docetaxel (15 mg/kg/week) or KBA106 (50 mg/kg/week). Initial luminescence intensity was subtracted. 27B. […] No value was available (N/A) for the mice treated with the vehicle since all mice were then sacrificed because the size of their tumors reached the endpoint limit. 27C. Tumor luminescence results were expressed in terms of percentage of progression on D74 post-treatment compared to initial tumor luminescence. In the Docetaxel group, the tumor luminescence increased by 100% whereas in the KBA106 treated group the luminescence decreased by 100%.
Residual tumor burden was assessed in Docetaxel and Docetaxel conjugate treated mice (FIG. 27). Mice were implanted in the flank with MDA-MB231 breast cancer cells expressing luciferase. Tumor growth by luminescence was visualized using an in vivo imaging system from Carestream. Mice were treated with vehicle, Docetaxel (15 mg/kg/week) or KBA106 (50 mg/kg/week).

P-gp (MDR1) = P-gp (MDR1) (Homo sapiens, UniProt P08183); experiment: Drug accumulation in MDCK-MDR1 cells with or without Cyclosporin A; conditions: 50 nM, 1 hr, 37° C., CsA 10 μM
Sequence of P-gp (MDR1) (P08183 whole entry): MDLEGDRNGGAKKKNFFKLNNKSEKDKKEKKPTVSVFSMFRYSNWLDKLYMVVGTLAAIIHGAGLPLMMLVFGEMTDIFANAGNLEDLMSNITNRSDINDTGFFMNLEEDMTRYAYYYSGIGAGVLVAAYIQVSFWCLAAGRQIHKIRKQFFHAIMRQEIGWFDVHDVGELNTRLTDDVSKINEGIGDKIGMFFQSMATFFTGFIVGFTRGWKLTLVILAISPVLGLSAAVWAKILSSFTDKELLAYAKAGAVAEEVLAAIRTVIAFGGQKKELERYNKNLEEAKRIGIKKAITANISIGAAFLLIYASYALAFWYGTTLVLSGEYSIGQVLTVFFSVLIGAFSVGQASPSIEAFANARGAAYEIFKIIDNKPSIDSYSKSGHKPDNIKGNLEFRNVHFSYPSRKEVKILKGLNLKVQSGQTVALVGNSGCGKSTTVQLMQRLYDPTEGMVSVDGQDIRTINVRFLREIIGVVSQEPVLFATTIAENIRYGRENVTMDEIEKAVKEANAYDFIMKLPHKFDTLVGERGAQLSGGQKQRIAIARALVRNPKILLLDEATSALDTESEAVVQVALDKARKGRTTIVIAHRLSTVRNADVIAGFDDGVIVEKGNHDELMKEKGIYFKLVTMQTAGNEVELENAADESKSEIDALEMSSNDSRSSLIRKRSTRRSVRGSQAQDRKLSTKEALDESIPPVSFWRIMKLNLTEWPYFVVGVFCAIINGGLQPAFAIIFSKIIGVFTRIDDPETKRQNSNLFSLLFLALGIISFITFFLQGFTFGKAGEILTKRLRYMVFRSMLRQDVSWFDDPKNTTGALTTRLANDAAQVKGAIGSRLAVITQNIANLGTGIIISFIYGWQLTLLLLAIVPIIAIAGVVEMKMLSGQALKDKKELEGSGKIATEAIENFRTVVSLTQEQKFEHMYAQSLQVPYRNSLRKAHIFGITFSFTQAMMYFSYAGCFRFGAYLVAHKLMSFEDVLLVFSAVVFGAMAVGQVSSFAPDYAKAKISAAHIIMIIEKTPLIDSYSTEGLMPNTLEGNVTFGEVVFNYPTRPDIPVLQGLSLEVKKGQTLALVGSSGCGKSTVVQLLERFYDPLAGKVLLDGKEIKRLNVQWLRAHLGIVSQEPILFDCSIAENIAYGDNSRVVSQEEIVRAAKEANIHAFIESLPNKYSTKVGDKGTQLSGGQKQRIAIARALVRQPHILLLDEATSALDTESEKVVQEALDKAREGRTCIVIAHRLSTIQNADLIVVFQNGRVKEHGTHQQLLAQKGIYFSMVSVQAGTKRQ
Description: 6A. […] 6B. MDCK-MDR1 cells were incubated with 50 nM of either [^14C]-Doxorubicin or [^125I]-Katana peptide-Doxorubicin conjugate (KBB106) for 1 hr at 37° C. in the presence or absence of CsA (10 μM). After the incubation, cells were washed and radioactivity accumulated in cells was quantified. The results were expressed in terms of uptake fmol/mg of protein.
In order to determine whether the anticancer drug-Katana-peptide conjugates could also be P-gp substrates, MDCK-transfected cells with human MDR1 were used (MDCK-MDR1).
Cells were washed three times with PBS and preincubated for 30 min at 37° C. in culture medium without serum with or without the P-gp inhibitor Cyclosporin A (10 μM). Radiolabelled molecules (50 nM) were then added for 60 min. The cells were rapidly washed three times with ice-cold PBS and then lysed in 500 µL of 0.1 M NaOH. The amount of radiolabelled molecules retained in the cells was counted by β-scintillation counting (Packard model 1900 TR). An aliquot of cell lysate was used in parallel to determine cellular protein concentration.

[9] = Tissue distribution of radiolabeled compounds in mice; conditions: iv bolus, equivalent dose of Docetaxel (Docetaxel 2.2, KBA105 5 mg/kg)
Description: CD-1 mice were injected with the radiolabeled conjugate at 5 mg/kg via iv bolus injections (21A) or […] of radiolabeled Docetaxel (21B). At the indicated times (1 h, 6 h, 24 h) mice were sacrificed and perfused with saline for 8 min. Tissues were then collected and radioactivity was measured. Results are expressed in terms of ng/g of tissue.
At the indicated times (1, 6 and 24 hours), whole body perfusion was performed for 8 min with saline at a flow rate of 8 ml/min after […] hours iv bolus injections.
After radiolabeling free iodine was remove. Mice were injected with Docetaxel-[^125I]-Katana peptide conjugate at 5 mg/kg. Plasma was collected at the indicated times. After 1, 2 and 24 hours some mice were perfused with saline, sacrificed and tissues were collected. Radioactivity in the plasma and tissues were measured in a radioactivity counter and results were calculated and expressed in terms of […] for the plasma or ng/g of tissues.

SKOV3 cancer cells = experiment: SKOV3 luciferase subcutaneous xenograft tumour model (Docetaxel, KBA-105); conditions: mice, Docetaxel 10 mg/kg/week, 3 treatments
Description: Mice were implanted in the flank with SKOV3 cancer cells. Tumor growth was monitored by luminescence using the Near Infrared imaging system from Carestream.
Results are expressed in terms of luminescence intensity as a function of post-treatment days.
To further evaluate the in vivo efficacy of the Katana-drug conjugate, SKOV3 cancer cells expressing luciferase were implanted in the mouse flank. […] Tumour imaging was performed on different days by injecting the luciferase substrate luciferin and by using the Xtreme imaging system from Carestream.
Luminescence was then quantified and plotted as a function of days after implantation (FIG. 23).
SKOV3 cancer cells (2.5×10^6 cells) expressing luciferase were implanted in the right flank of mice. Tumour growth was monitored using near infrared (NiR) imaging system from Carestream by injecting the luciferase substrate luciferin. […] Luminescence associated with tumour growth of SKOV3/Luc cancer cells was quantified as a function of post-treatment days with the instrument software.

[10] = test system: ovarian (SKOV3 and ES-2) cancer cells; experiment: Cell migration assay by xCELLigence biosensor system, ovarian cancer cells; format: cell-based; conditions: 2 hours incubation, 2 μM
Description: 15A. Cells were incubated for 2 hrs with increasing concentration of Doxorubicin or conjugated Doxorubicin (KBB106) and cell migration was performed. 15B. […] 15C. Progranulin (PGR), a sortilin ligand, also reversed the effect of the Doxorubicin conjugate (KBB106) on ovarian cancer cell (ES-2) migration.
This second cellular assay was also used to screen the different Katana-drug conjugates (FIG. 15). […] However, as shown in FIGS. 15B and 15C, when the cancer cells were incubated with conjugated Doxorubicin (KBB106) in the presence of a sortilin ligand (Neurotensin, Katana peptide or progranulin), the migratory effect of the Doxorubicin conjugate was reversed.
Experiments were carried out using the Real-Time Cell Analyser (RTCA) Dual-Plate (DP) Instrument, the xCELLigence system (Roche Diagnostics, QC). This system was used according to the instructions of the supplier. Then, cells (25 000 cells/well) were seeded in serum-free medium onto a CIM-Plates 16 (Roche diagnostics). […] After 30 min of adhesion, cell migration was monitored every 5 min for 8 h. The impedance value was measured by the RTCA DP Instrument and was expressed as an arbitrary unit called the Cell Index which reflecting the amount of migration-active cells. […]

## COc1cc(/C=C/C(=O)CC(=O)/C=C/c2ccc(O)c(OC)c2)ccc1O [Curcumin, curcumin]
[1]; Table 6
  IC50: 14.4 µM
A-375 skin cancer cells; A-375, Table 6
  IC50: 20.9 µM
Cancer cells
  induction of apoptosis (nucleus fragmentation, DAPI): does not
[2]; SK-MEL-28, Table 6
  IC50: 12.5 µM
[3]
  IC50: 51.3 µM
[4]
  IC50: 12 µM
[5]
  IC50: 14.8 µM
[6]; MDA-MB-231, 72 h
  IC50: 13.4 µM

## CC(=O)O[C@@]12CO[C@@H]1C[C@H](O)[C@@]1(C)C(=O)[C@H](O)C3=C(C)[C@@H](OC(=O)[C@H](O)[C@@H](NC(=O)OC(C)(C)C)c4ccccc4)C[C@@](O)([C@@H](OC(=O)c4ccccc4)[C@H]21)C3(C)C [Docetaxel, docetaxel, reference compound]
[1]; Table 4, 2 or 3 days
  IC50: 0.0013 µM
[7]
  plasma half-life reported in the literature: 1 h
[8]; D74 post-treatment, Docetaxel 15 mg/kg/week
  tumor luminescence increase compared to initial tumor luminescence: 100%
A-375 skin cancer cells; A-375 (Skin), Table 4, 2 or 3 days
  IC50: 0.00092 µM
P-gp (MDR1)
  increase of accumulation in the presence of cyclosporin A: 2 fold
[2]; SK-MEL-28 (Skin), Table 4, 2 or 3 days
  IC50: 0.00069 µM
[9]; Brain
  Area under the curve (AUC1-24): 34 ng·h/mL
[9]; Heart
  Area under the curve (AUC1-24): 656 ng·h/mL
[9]; Kidney
  Area under the curve (AUC1-24): 1072 ng·h/mL
[9]; Liver
  Area under the curve (AUC1-24): 652 ng·h/mL
[9]; Lung
  Area under the curve (AUC1-24): 614 ng·h/mL
[9]; Mammary
  Area under the curve (AUC1-24): 823 ng·h/mL
[9]; Ovary
  Area under the curve (AUC1-24): 1523 ng·h/mL
[9]; Spleen
  Area under the curve (AUC1-24): 457 ng·h/mL
SKOV3 cancer cells
  body weight loss: ~20%
[6]; MDA-MB-231
  IC50: 0.00068 µM

## CCCC[C@H](NC(=O)[C@H](CC(N)=O)NC(=O)[C@H](CCCNC(=N)N)NC(=O)[C@@H](NC(=O)CNC(=O)[C@H](C)NC(=O)[C@H](CCCCNC(=O)CCC(=O)O[C@@H](C(=O)O[C@H]1C[C@@]2(O)[C@@H](OC(=O)c3ccccc3)[C@@H]3[C@]4(OC(C)=O)CO[C@@H]4C[C@H](O)[C@@]3(C)C(=O)[C@H](O)C(=C1C)C2(C)C)[C@@H](NC(=O)OC(C)(C)C)c1ccccc1)NC(=O)[C@H](C)NC(=O)[C@H](CCCNC(=N)N)NC(=O)[C@@H](NC(=O)CNC(C)=O)C(C)C)C(C)C)C(=O)N[C@@H](Cc1ccccc1)C(=O)N[C@@H](CCCCNC(=O)CCC(=O)O[C@@H](C(=O)O[C@H]1C[C@@]2(O)[C@@H](OC(=O)c3ccccc3)[C@@H]3[C@]4(OC(C)=O)CO[C@@H]4C[C@H](O)[C@@]3(C)C(=O)[C@H](O)C(=C1C)C2(C)C)[C@@H](NC(=O)OC(C)(C)C)c1ccccc1)C(=O)N[C@@H](CO)C(=O)N[C@@H](CCC(=O)O)C(=O)N[C@@H](CO)C(=O)N[C@@H](Cc1ccc(O)cc1)C(=O)O [KBA-106, Acetyl-GVRAK(docetaxel)AGVRN(Nle)FK(docetaxel)SESY] (Ac-GVRAK(X1)AGVRN[Nle]FK(X1)SESY-OH; C-terminus assumed)
[8]; D74 post-treatment, KBA106 50 mg/kg/week
  tumor luminescence decrease compared to initial tumor luminescence: 100%
[8]; Day 74 post-treatment, KBA106 50 mg/kg/week
  residual tumor burden (remaining luminescence): no luminescence was detectable
[10]
  effect on cell migration: almost completely abolished the cellular capacity of these cells to migrate
